Results from patent US20250235543A1, “MODIFIED PROTEINS AND PROTEIN DEGRADERS” (Cullgen (Shanghai), Inc., priority 2021, published 2025).
pKd: −log10 of the molar value. Where two headings read alike, the source gives them in different places.

Assays:
DDB1 = target: T1, DDB1 (Homo sapiens, UniProt Q16531, D705G/DEL396-460/DEL463-701/I704S/T703N); experiment: SPR binding assay to immobilized DDB1ΔBPB; details: binding affinities to DDB1
T1 construct: His6 (N, cleaved yes); TEV protease cleavage site (N, cleaved yes); made in house; host or cells: SF9 insect cells, Bac-to-Bac baculovirus, pFastBacHTB vector
T1 sequence (Q16531 other isoform, or with tags, fused parts or gaps DEL396-460/DEL463-701/T703N/I704S/D705G): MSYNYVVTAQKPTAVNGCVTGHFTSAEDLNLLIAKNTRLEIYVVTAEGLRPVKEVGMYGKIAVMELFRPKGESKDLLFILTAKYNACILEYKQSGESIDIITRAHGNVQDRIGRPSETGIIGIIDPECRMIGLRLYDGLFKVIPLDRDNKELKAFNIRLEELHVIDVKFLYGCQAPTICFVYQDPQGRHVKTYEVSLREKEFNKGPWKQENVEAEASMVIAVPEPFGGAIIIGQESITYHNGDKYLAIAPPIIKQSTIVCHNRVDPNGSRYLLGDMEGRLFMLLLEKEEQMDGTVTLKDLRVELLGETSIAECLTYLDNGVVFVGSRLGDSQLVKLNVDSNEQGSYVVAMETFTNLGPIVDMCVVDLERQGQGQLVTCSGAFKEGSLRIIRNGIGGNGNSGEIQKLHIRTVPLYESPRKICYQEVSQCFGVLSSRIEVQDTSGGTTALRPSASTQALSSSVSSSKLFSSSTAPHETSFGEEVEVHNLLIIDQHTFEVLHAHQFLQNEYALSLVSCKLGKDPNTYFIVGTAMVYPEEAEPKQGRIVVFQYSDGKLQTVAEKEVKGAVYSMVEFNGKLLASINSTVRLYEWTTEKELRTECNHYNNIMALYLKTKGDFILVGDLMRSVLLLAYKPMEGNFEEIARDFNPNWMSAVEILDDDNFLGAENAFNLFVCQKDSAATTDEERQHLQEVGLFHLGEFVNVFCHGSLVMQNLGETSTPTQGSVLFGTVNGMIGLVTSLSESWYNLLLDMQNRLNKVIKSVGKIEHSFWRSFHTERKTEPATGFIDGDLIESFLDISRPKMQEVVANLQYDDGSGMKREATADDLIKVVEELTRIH
Procedure: The binding affinities of heterobifunctional compounds to DDB1 were determined by SPR assay (FIG. 1A-1B). Purified DDB1ΔBPB proteins were immobilized on a CM5 sensor chip, and a dose range of compound solutions were injected in multi-cycle kinetic format. Data were fit to a steady state model to provide equivalent dissociation constants (Kd).
Human DDB1ΔBPB (UniProt: Q16531. BPB domain, aa 396 to 705, is replaced with a GNGNSG linker) coding sequences were cloned into pFastBacHTB vector and were expressed in SF9 cells using Bac-to-Bac baculovirus expression system (Thermo Fisher Scientific). The expression constructs include an N-terminal His6-tag to facilitate the purification, and a TEV protease cleavage site in between. DDB1ΔBPB proteins were obtained from supernatant of cell lysates and purified through sequential application of Ni affinity column (Ni-NTA column, Bio-Rad) and size-exclusion column (Superdex 200 16/600GL column, GE Healthcare) chromatography. Protein tags were cleaved off by TEV protease, and the resulting untagged proteins were further purified by Ni affinity column. Purified proteins were verified by immunoblotting, analytic SEC, and LC-MS.
SPR studies were performed on a Biacore X100 plus instrument (GE Healthcare). Immobilization of purified DDB1ΔBPB was carried out at 25° C. using a CM5 sensor chip. The surface was pre-equilibrated in HBS-EP running buffer (10 mM HEPES, pH7.4, 150 mM NaCl, 3 mM EDTA, 0.05% P20), before it was activated with EDC/NHS. DDB1ΔBPB proteins were immobilized by amine coupling to a density of 10,000-12,000 resonance units (RUs) on flow cell FC2, whereas flow cell FC1 was used as reference. Both protein immobilized and reference surfaces were deactivated with 1M ethanolamine. All interaction experiments were performed at 25° C. Test compounds were prepared and serially diluted in HBS-EP running buffer containing final 5% DMSO (6-point two-fold serial dilution, 100 μM-3.125 μM final concentration of compounds). Compound solutions were injected individually in multi-cycle kinetic format without regeneration (flow rate 30 μl/min, association time 120 s, dissociation time 120 s). Sensorgrams from reference surfaces and blank injections were subtracted from the raw data (double-referencing) and the data was solvent-corrected prior to analysis. All data were fit to steady state affinity model using Biacore Evaluation Software to provide equivalent dissociation constants (Kd).

cyclin D1 = experiment: Cyclin D1 percentage degradation in Calu-1 cells (immunoblotting); type: cell-based; details: 16 hours
Procedure, shortened: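 Cells were rinsed once in cold PBS and lysed in cold RIPA buffer containing protease and phosphatase inhibitors, with gentle agitation at 4° C. for 30 min. Lysates were spun at 13,000 rpm for 10 min at 4° C., protein was measured by BCA, and samples were boiled in Laemmli buffer at 99° C. for 5 min before SDS-PAGE immunoblotting.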

CDK4 = target: T2, CDK4 (Homo sapiens, UniProt P11802); experiment: CDK4 percentage degradation in Calu-1 cells (immunoblotting); type: cell-based; details: for inhibition at 0.2 µM: 200 nM, read-out: CDK4 Degradation (200 nM); for inhibition at 10 µM: read-out: CDK4 Degradation (10 μM)
T2 construct: endogenous in cells; host or cells: Calu-1
T2 sequence (P11802 2-303 limits assumed): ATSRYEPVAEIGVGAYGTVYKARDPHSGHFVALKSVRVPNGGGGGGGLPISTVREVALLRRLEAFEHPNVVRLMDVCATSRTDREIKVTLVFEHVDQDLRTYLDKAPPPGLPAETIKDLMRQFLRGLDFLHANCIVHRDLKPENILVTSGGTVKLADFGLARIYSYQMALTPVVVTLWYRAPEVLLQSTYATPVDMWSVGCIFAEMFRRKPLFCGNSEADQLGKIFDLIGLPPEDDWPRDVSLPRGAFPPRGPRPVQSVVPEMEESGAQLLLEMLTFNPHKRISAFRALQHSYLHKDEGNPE
T2 sequence (P24385 whole entry partner): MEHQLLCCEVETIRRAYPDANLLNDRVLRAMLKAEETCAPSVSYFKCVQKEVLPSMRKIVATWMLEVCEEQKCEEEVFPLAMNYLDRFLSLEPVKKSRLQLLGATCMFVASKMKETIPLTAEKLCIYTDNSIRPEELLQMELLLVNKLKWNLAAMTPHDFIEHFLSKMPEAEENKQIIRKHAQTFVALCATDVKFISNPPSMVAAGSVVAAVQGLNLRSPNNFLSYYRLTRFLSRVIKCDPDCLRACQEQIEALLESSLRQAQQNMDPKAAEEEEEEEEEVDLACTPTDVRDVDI
T2 sequence (Q16531 2-1140 limits assumed, further chain): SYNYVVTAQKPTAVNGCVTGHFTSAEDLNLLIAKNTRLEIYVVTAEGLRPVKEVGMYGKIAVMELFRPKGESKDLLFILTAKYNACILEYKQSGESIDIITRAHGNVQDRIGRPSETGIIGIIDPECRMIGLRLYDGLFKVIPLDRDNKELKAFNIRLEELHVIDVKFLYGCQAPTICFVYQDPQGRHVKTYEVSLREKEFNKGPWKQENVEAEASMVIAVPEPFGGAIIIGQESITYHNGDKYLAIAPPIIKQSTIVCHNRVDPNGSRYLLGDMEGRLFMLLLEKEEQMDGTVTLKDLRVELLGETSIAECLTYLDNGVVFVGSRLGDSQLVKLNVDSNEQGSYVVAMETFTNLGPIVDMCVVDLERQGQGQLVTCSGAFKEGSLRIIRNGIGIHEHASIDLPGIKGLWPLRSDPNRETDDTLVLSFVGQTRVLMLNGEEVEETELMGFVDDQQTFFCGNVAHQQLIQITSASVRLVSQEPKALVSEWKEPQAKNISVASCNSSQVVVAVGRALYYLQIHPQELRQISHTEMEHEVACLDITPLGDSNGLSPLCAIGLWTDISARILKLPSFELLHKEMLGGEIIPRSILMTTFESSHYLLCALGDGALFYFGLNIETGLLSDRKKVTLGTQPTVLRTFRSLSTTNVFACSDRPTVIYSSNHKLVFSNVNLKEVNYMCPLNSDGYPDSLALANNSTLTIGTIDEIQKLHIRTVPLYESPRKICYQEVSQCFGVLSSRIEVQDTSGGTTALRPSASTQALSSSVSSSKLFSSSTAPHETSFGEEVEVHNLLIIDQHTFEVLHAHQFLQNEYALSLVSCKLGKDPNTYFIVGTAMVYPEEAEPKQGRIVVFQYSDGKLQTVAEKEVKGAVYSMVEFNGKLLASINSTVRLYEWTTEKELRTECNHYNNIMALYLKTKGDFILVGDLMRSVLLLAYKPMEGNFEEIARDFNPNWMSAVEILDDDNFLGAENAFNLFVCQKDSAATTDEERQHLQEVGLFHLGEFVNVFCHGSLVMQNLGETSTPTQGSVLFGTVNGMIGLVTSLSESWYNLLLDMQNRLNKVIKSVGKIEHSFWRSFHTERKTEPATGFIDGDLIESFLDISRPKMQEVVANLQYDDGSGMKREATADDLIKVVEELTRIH
Procedure, shortened: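 Cultured cells were rinsed once in cold PBS and lysed in cold RIPA buffer containing protease and phosphatase inhibitors, with gentle agitation at 4° C. for 30 min. Lysates were centrifuged at 13,000 rpm for 10 min at 4° C., and protein was quantified by BCA. Samples were then separated by SDS-PAGE, detected with ECL, and the CDK4 bands quantified in Image Lab.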

## CCc1nc(NC(=O)c2ccc(NCCOCCOCCOCCOCCOCCNC(=O)CN3CCN(c4ccc(Nc5ncc6c(C)c(C(C)=O)c(=O)n(C7CCCC7)c6n5)nc4)CC3)cc2C)sc1C [CPD-047, 4-((1-(4-(6-((6-Acetyl-8-cyclopentyl-5-methyl-7-oxo-7,8-dihydropyrido[2,3-d]pyrimidin-2-yl)amino)pyridin-3-yl)piperazin-1-yl)-2-oxo-6,9,12,15,18-pentaoxa-3-azaicosan-20-yl)amino)-N-(4-ethyl-5-methylthiazol-2-yl)-2-methylbenzamide]
DDB1
  pKd: > 4.70
Cyclin D1
  CyclinD1 Degradation (200 nM): A (protein percentage degradation >=80%)
CDK4; Calu-1 cells, 16 hours
  inhibition at 0.2 µM: > 80%

## COC(=O)c1nc(NC(=O)c2ccc(NCCOCCOCCOCCOCCOCCNC(=O)CN3CCN(c4ccc(Nc5ncc6c(C)c(C(C)=O)c(=O)n(C7CCCC7)c6n5)nc4)CC3)cc2C)sc1C [CPD-033, Methyl 2-(4-((1-(4-(6-((6-acetyl-8-cyclopentyl-5-methyl-7-oxo-7,8-dihydropyrido[2,3-d]pyrimidin-2-yl)amino)pyridin-3-yl)piperazin-1-yl)-2-oxo-6,9,12,15,18-pentaoxa-3-azaicosan-20-yl)amino)-2-methylbenzamido)-5-methylthiazole-4-carboxylate]
DDB1
  pKd: > 4.70
Cyclin D1
  CyclinD1 Degradation (200 nM): A (protein percentage degradation >=80%)
CDK4; Calu-1 cells, 16 hours
  inhibition at 0.2 µM: > 80%

## Cc1cnc(NC(=O)c2ccc(NCCOCCOCCOCCOCCOCCNC(=O)CN3CCN(c4ccc(Nc5ncc6cc(C(=O)N(C)C)n(C7CCCC7)c6n5)nc4)CC3)cc2C)s1 [CPD-023, 7-Cyclopentyl-N,N-dimethyl-2-((5-(4-(20-((3-methyl-4-((5-methylthiazol-2-yl)carbamoyl)phenyl)amino)-2-oxo-6,9,12,15,18-pentaoxa-3-azaicosyl)piperazin-1-yl)pyridin-2-yl)amino)-7H-pyrrolo[2,3-d]pyrimidine-6-carboxamide]
DDB1
  pKd: 4.00 to 4.30
Cyclin D1
  CyclinD1 Degradation (10 μM): A (protein percentage degradation >= 80%)
CDK4; Calu-1 cells, 10 μM, 16 hours
  inhibition at 10 µM: > 80%

## CC(=O)c1c(C)c2cnc(Nc3ccc(N4CCN(CC(=O)NCCOCCOCCOCCC(=O)Nc5ccccc5C(=O)Nc5nc(C)c(C)s5)CC4)cn3)nc2n(C2CCCC2)c1=O [CPD-114, 2-(1-(4-(6-((6-Acetyl-8-cyclopentyl-5-methyl-7-oxo-7,8-dihydropyrido[2,3-d]pyrimidin-2-yl)amino)pyridin-3-yl)piperazin-1-yl)-2-oxo-6,9,12-trioxa-3-azapentadecan-15-amido)-N-(4,5-dimethylthiazol-2-yl)benzamide]
DDB1
  pKd: > 4.70
Cyclin D1
  CyclinD1 Degradation (200 nM): A (protein percentage degradation >=80%)
CDK4; Calu-1 cells, 16 hours
  inhibition at 0.2 µM: > 80%

## Cc1cnc(NC(=O)c2ccc(NCCOCCOCCOCCOCCOCCNC(=O)CN3CCN(Cc4ccc(Nc5ncc(F)c(-c6cc(F)c7nc(C)n(C(C)C)c7c6)n5)nc4)CC3)cc2C)s1 [CPD-020, 4-((1-(4-((6-((5-Fluoro-4-(4-fluoro-1-isopropyl-2-methyl-1H-benzo[d]imidazol-6-yl)pyrimidin-2-yl)amino)pyridin-3-yl)methyl)piperazin-1-yl)-2-oxo-6,9,12,15,18-pentaoxa-3-azaicosan-20-yl)amino)-2-methyl-N-(5-methylthiazol-2-yl)benzamide]
DDB1
  pKd: > 4.70
Cyclin D1
  CyclinD1 Degradation (10 μM): D (protein percentage degradation < 30%)
CDK4; Calu-1 cells, 10 μM, 16 hours
  inhibition at 10 µM: < 30%

## Cc1cnc(NC(=O)c2ccc(NCCOCCOCCOCCOCCOCCNC(=O)CN3CCN(c4ccc(Nc5ncc6cc7n(c6n5)C5(CCCCC5)CNC7=O)nc4)CC3)cc2C)s1 [CPD-022, 2-Methyl-N-(5-methylthiazol-2-yl)-4-((2-oxo-1-(4-(6-((6′-oxo-7′,8′-dihydro-6′H-spiro[cyclohexane-1,9′-pyrazino[1′,2′:1,5]pyrrolo[2,3-d]pyrimidin]-2′-yl)amino)pyridin-3-yl)piperazin-1-yl)-6,9,12,15,18-pentaoxa-3-azaicosan-20-yl)amino)benzamide]
DDB1
  pKd: > 4.70
Cyclin D1
  CyclinD1 Degradation (10 μM): A (protein percentage degradation >= 80%)
CDK4; Calu-1, 16 h
  inhibition at 10 µM: > 80%

## Cc1cnc(NC(=O)c2ccc(NCCOCCOCCOCCOCCOCCNC(=O)CN3CCN(c4ccc(Nc5ncc(F)c(-c6cc(F)c7nc(C)n(C(C)C)c7c6)n5)nc4)CC3)cc2C)s1 [CPD-021, 4-((1-(4-(6-((5-Fluoro-4-(4-fluoro-1-isopropyl-2-methyl-1H-benzo[d]imidazol-6-yl)pyrimidin-2-yl)amino)pyridin-3-yl)piperazin-1-yl)-2-oxo-6,9,12,15,18-pentaoxa-3-azaicosan-20-yl)amino)-2-methyl-N-(5-methylthiazol-2-yl)benzamide]
DDB1
  pKd: 4.30 to 4.70
Cyclin D1
  CyclinD1 Degradation (10 μM): A (protein percentage degradation >= 80%)
CDK4; Calu-1 cells, 10 μM, 16 hours
  inhibition at 10 µM: 50 to 80%

## Cc1ccccc1C(=O)Nc1nc(C)c(C)s1 [B1-1, N-(4,5-dimethylthiazol-2-yl)-2-methylbenzamide]
DDB1
  pKd: < 4.00

## Cc1ccccc1C(=O)Nc1nc(C(C)C)c(C)s1 [B1-3, N-(4-isopropyl-5-methylthiazol-2-yl)-2-methylbenzamide]
DDB1
  pKd: 4.00 to 4.30

## CC(=O)c1c(C)c2cnc(Nc3ccc(N4CCN(CC(=O)NCCOCCOCCC(=O)Nc5ccccc5C(=O)Nc5nc(C)c(C)s5)CC4)cn3)nc2n(C2CCCC2)c1=O [CPD-115, 2-(3-(2-(2-(2-(4-(6-((6-Acetyl-8-cyclopentyl-5-methyl-7-oxo-7,8-dihydropyrido[2,3-d]pyrimidin-2-yl)amino)pyridin-3-yl)piperazin-1-yl)acetamido)ethoxy)ethoxy)propanamido)-N-(4,5-dimethylthiazol-2-yl)benzamide]
DDB1
  pKd: > 4.70
Cyclin D1
  CyclinD1 Degradation (200 nM): A (protein percentage degradation >=80%)
CDK4; Calu-1 cells, 16 hours
  inhibition at 0.2 µM: > 80%

## CC(=O)c1c(C)c2cnc(Nc3ccc(N4CCN(CC(=O)NCCOCCOCCOCCOCCOCCNc5ccc(C(=O)Nc6nc(Br)c(C)s6)c(C)c5)CC4)cn3)nc2n(C2CCCC2)c1=O [CPD-044, 4-((1-(4-(6-((6-Acetyl-8-cyclopentyl-5-methyl-7-oxo-7,8-dihydropyrido[2,3-d]pyrimidin-2-yl)amino)pyridin-3-yl)piperazin-1-yl)-2-oxo-6,9,12,15,18-pentaoxa-3-azaicosan-20-yl)amino)-N-(4-bromo-5-methylthiazol-2-yl)-2-methylbenzamide]
DDB1
  pKd: > 4.70
Cyclin D1
  CyclinD1 Degradation (200 nM): A (protein percentage degradation >=80%)
CDK4; Calu-1 cells, 16 hours
  inhibition at 0.2 µM: 50 to 80%

## CNc1ccc(C(=O)Nc2nc(C)c(C)s2)c(NC(C)=O)c1 [B1-67, 2-acetamido-N-(4,5-dimethylthiazol-2-yl)-4-(methylamino)benzamide]
DDB1
  pKd: 4.30 to 4.70

## Cc1cc(NCCOCCOCCOCCOCCOCCN)ccc1C(=O)Nc1nc(C)c(C)s1 [BL1-36, 4-((17-amino-3,6,9,12,15-pentaoxaheptadecyl)amino)-N-(4,5-dimethylthiazol-2-yl)-2-methylbenzamide]
DDB1
  pKd: > 4.70

## CC(=O)Nc1ccccc1C(=O)Nc1nc(C)c(C)s1 [B1-6, 2-acetamido-N-(4,5-dimethylthiazol-2-yl)benzamide]
DDB1
  pKd: 4.30 to 4.70

## CNc1ccc(C(=O)Nc2ccc(C)cn2)c(NC(C)=O)c1 [B1-88, 2-acetamido-4-(methylamino)-N-(5-methylpyridin-2-yl)benzamide]
DDB1
  pKd: > 4.70

## Cc1ccccc1C(=O)Nc1nc(C2CC2)c(C)s1 [B1-7, N-(4-cyclopropyl-5-methylthiazol-2-yl)-2-methylbenzamide]
DDB1
  pKd: < 4.00

## CC(=O)Nc1ccccc1C(=O)Nc1ccc(N(C)C)nn1 [B1-71, 2-acetamido-N-(6-(dimethylamino)pyridazin-3-yl)benzamide]
DDB1
  pKd: 4.30 to 4.70
